Assay results: patent US20260090997A1, “Lipid Nanoparticles Comprising Nucleic Acids Encoding Therapeutic Genes and Uses in Medical Methods” (priority 2022, published 2026)

Tested on: FADU xenografts
Assay: Intratumoral NanoLuc mRNA delivery into FADU xenografts, bioluminescence
Format: in vivo, Nu/J mice
Settings: LNPs containing MC3, cKK-E12, SM-102 or C12-200
Description: FIG. 5A illustrates different LNPs formulated to carry NanoLuc reporter mRNA to evaluate effective intratumoral injections into FADU xenografts. To identify the most suitable ionizable lipid for intratumoral delivery, an in vivo imaging system was used to quantify the bioluminescence resulting from the functional delivery of NanoLuc mRNA using LNPs containing four different ionizable lipids: MC3, cKK-E12, SM-102, and C12-200.

SMILES: CCCCCCCCCCC(O)CN(CCN1CCN(CCN(CC(O)CCCCCCCCCC)CC(O)CCCCCCCCCC)CC1)CCN(CC(O)CCCCCCCCCC)CC(O)CCCCCCCCCC (stereo not shown) [C12-200]
- bioluminescence from functional delivery of NanoLuc mRNA, comparison of ionizable lipids: optimal ionizable lipid
